Marks after values point to notes of the source that are not given here.

The subject of one assay is estrogen receptors. As to the kind of experiment: Binding capacity of impurities to estrogen receptors. To be noted: impurities in Compound 1 from Process A, Route 1 after recrystallization; directly or from the product after ester hydrolysis. Details: species or system human. On the procedure: (§1) Estrogen receptor binding assay: A suitable example system is an estrogen receptor-kit manufactured by PanVera for ERIβ, which contains recombinant estrogen receptor β ligand, FLUORMONE™ ES2 (ES2), a fluorescently labeled estrogen ligand, and appropriate buffer. […] When bound to ERβ, ES2 tumbles slowly and has a high fluorescence polarization value.
(§2) The competition assay was conducted according to the manufacturer's protocol (Lit. No. L0712, Rev. 10/03). Assay reagents used were bacculovirus expressed, full length human ERβ […] in 50 mM Bis-Tris Propane (pH=9), 400 mM KCl, 2 mM DTT, 1 mM EDTA, 10% glycerol, ES2 400 nM in methanol and E2 screening buffer consisting of 100 mM potassium phosphate (pH=7.4), 100 μg/mL BGG, 0.02% NaN3. The ES2-ERβ complex was formed with 20 μL 20 nM ERβ (0.020 pmol/μL) and 20 μL 2 nM ES2 (0.002 pmol/μL). Positive control (estrogen) solution was prepared using 20 μL of a 1.0 mM stock solution in DMSO and 80 μL DMSO. In a first dilution, 50 μL of this solution is added to 50 μL of DMSO, which is followed by dilutions in 2-fold increments, to provide for a 14 point dilution curve. In a second dilution, to 4 μL of each DMSO solution from the first dilution is added 400 μL of ES2 screening buffer. […] Fluorescence polarization values are obtained using 485 nm excitation and 530 nm emission interference filters. […]

Another assay addresses T1, ERα (Homo sapiens, UniProt P03372).
T1 construct: bacculovirus expressed, full length human 2.8 pmol/μL ERα was used as reagent; purchased PanVera; host or cells: baculovirus expression system
The assay can be described thus: Estrogen receptor binding assay (fluorescence polarization competition), ERα.

The next assay has as its target T2, ERβ (Homo sapiens, UniProt Q92731).
T2 construct: Assay reagents used were bacculovirus expressed, full length human ERβ; purchased PanVera; host or cells: baculovirus expression system
As to the kind of experiment: Estrogen receptor binding assay (fluorescence polarization competition), ERβ. How it is done: as §1, §2
(In general: Fluorescence polarisation rises when a labelled molecule tumbles more slowly, as on binding a larger partner.)

Assay [1] deals with nuclear sex steroid receptors. As to the kind of experiment: Binding activity at nuclear sex steroid receptors. Conditions: essentially free defined in b31 as Ki>10 μM. The text has this:
The term “binding activity” refers to the ability of a specified compound, a preparation comprising Compound 1 or impurity (or impurities) in a preparation of Compound 1 to bind to or associate with a receptor, typically a sex steroid receptor such as an androgen receptor or an estrogen receptor to effect or modulate the receptor's biological activity. Binding is usually measured in assays as the capacity of a compound, usually an impurity in a preparation comprising Compound 1, to displace a physiologically relevant ligand of a receptor (i.e., reference ligand) that is bound to that receptor in a competition assay. The reference ligand is typically a natural ligand of the receptor or an agonist of the receptor that has been labeled with a radioactive or spectroscopic probe whose presence may be queried by scintillation counting or by a spectroscopic method such as fluorescence emission or fluorescence polarization.
The radioactive probe is typically ^3H and/or ^14C, where radioactive atom(s) have replaced one or more of atoms of the ligand at positions where loss of the radiolabel would not occur to an extent under conditions of the assay that would complicate or confound interpretation of the assay results. […]

Assay [2] in a line: Estrogenic effects seen with Compound 1 prepared by Process A. To be noted: Compound 1 preparation made by Process A, Route 1 (contains 17α-ethynyl-androst-5-ene-3β,17β-diol impurity).
Where [3] appears, read: Compound 1 essentially free of the 3β,17β-diol impurity, tested to 10 μM.

T2 sequence (Q92731 whole entry): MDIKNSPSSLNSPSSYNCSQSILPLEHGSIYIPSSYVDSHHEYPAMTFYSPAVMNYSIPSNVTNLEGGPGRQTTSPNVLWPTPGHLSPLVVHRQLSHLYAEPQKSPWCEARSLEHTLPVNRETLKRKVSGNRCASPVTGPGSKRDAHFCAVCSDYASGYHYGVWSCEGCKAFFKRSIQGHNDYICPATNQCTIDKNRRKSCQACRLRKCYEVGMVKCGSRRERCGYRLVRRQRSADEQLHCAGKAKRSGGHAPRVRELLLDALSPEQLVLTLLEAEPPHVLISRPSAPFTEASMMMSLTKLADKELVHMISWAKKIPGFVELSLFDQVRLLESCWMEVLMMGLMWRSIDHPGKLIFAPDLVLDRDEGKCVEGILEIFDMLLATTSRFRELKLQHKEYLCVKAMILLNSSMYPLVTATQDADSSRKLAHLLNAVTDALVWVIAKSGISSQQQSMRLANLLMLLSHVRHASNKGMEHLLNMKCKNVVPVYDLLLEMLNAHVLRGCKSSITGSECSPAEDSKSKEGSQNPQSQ
T1 sequence (P03372 whole entry): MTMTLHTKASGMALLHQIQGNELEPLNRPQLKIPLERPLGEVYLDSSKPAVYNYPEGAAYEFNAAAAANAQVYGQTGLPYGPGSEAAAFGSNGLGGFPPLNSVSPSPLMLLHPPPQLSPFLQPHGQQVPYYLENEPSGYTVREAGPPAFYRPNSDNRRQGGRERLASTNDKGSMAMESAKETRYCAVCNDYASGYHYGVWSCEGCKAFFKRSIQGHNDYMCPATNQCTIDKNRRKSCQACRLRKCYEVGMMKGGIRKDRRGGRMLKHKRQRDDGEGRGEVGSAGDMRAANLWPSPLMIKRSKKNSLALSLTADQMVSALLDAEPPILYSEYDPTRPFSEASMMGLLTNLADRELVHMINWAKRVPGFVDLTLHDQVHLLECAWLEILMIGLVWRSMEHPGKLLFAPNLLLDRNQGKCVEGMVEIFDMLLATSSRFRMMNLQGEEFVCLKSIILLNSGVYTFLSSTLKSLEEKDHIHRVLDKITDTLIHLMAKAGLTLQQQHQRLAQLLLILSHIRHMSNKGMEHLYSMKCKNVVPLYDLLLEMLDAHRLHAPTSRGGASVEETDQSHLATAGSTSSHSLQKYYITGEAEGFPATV

For the molecule `C#CC1(O)CCC2C3CC=C4CC(OC(C)=O)CCC4(C)C3CCC21C` (stereo not drawn) [17α-ethynyl-3β-acetoxy-androst-5-ene-17β-diol], the “binding capacity to estrogen receptors” value in the assay on estrogen receptors is 0.05**.

As for `C#CC1(O)CCC2C3CC=C4CC(O)CCC4(C)C3CCC21C` (stereo not drawn) [17α-ethynyl-androst-5-ene-3β,17β-diol], the “binding activity at the estrogen receptor ERα” value at ERα (receptor binding studies) is “significant binding activity”. Moreover, the “binding activity at the estrogen receptor ERβ” value on ERβ (receptor binding studies) is recorded as “significant binding activity”. Moreover, the “binding capacity to estrogen receptors” value in the assay with estrogen receptors is 0.61**.

On to `C#C[C@@]1(O)CC[C@H]2[C@@H]3[C@@H](O)C=C4C[C@H](O)CC[C@]4(C)[C@H]3CC[C@@]21C` [Compound 1, 17-Ethynyl-10R,13S-dimethyl 2,3,4,7,8R,9S,10,11,12,13,14S,15,16,17-hexadecahydro-1H-cyclopenta[a]phenanthrene-3R,7R,17S-triol], for which the “activity at the estrogen receptor ERα” value on ERα (setting [3]) is given as “no activity”. For the same molecule, the “activity at the estrogen receptor ERβ” value at ERβ (setting [3]) is recorded as “no activity”. Also, in assay [1], the “binding activity at nuclear sex steroid receptors” value is “essentially free of binding activity”. Further, the estrogenic effects result in assay [2] is recorded as “estrogenic effects”.
